According to patent publication US12257247B2 (Monte Rosa Therapeutics AG, priority 2023, dated 2025):
Read-outs that look alike come from different tables or passages of the source.

Target: T1, VAV1 (Homo sapiens, UniProt P15498+Q96SW2)
T1 construct: A heterozygous VAV1 C-terminal HiBiT knock-in pool was generated at Monte Rosa Therapeutics from a clonal Jurkat cell; endogenous in cells; host or cells: Jurkat clone stably expressing LgBiT, homozygous GSPT1-G575N; heterozygous VAV1-HiBiT knock-in pool
Experiment: VAV1 degradation activity, VAV1-HiBiT knock-in Jurkat luminescence assay (Example A, Table 1)
Format: cell-based
Conditions: VAV1-HiBiT knock-in Jurkat cells, luminescence read at 6 and 24 hours; for Dmax: Jurkat
Method in brief: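 Jurkat cells carrying VAV1-HiBiT knock-in, plated in RPMI/10% FBS with Endurazine live-cell substrate and pre-incubated ~16 h at 37° C. Compound dosed from 10 μM stock; luminescence read 6 and 24 h later. Response normalised to plate negative/positive controls, EC50 from 3-parameter logistic fit (hillslope 1).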

[1] = read-out: VAV1 DC50 (nM), class

Row | SMILES | Dmax (read-out: VAV1 Dmax %) [%] | Dmax (read-out: VAV1 Dmax %, class) [%] | DC50 (read-out: VAV1 DC50) [nM] | DC50 [1] [nM] | VAV1 Dmax % [%]
1 | O=C1CCC(c2cccc(-c3ccc(N4C(=O)C[C@@H]5CCC[C@@H]54)cc3)c2Cl)C(=O)N1 (stereo partly drawn) [Compound 327] | 89.3 | 60 to 90 | 30.1 | ≤ 100 | 
2 | COc1cnc(Cc2ccc(-c3cccc(C4CCC(=O)NC4=O)c3Cl)cc2)nc1 (stereo not drawn) [Compound 422, 3-(2-chloro-4′-((5-methoxypyrimidin-2-yl)methyl)-[1,1′-biphenyl]-3-yl)piperidine-2,6-dione] | 98.4 | > 90 | 4.35 | ≤ 100 | 
3 | O=C1CCC(c2cccc(-c3ccc(CN4CCN5CCCC5C4=O)cc3)c2Cl)C(=O)N1 (stereo not drawn) [Compound 261] | 84.8 | 60 to 90 | 101 | 100 to 1000 | 
4 | CNc1ccc(-c2cccc(C3CCC(=O)NC3=O)c2Cl)cc1 (stereo not drawn) [Compound 134, 3-(2-chloro-4′-(methylamino)-[1,1′-biphenyl]-3-yl)piperidine-2,6-dione] | 85.7 | > 90 | 90.9 |  | 76.45
5 | O=C1CCC(c2cccc(-c3ccc(N4CCC4=O)cc3)c2Cl)C(=O)N1 (stereo not drawn) [Compound 163, 3-(2-chloro-4′-(2-oxoazetidin-1-yl)-[1,1′-biphenyl]-3-yl)piperidine-2,6-dione] | 44.7 | < 60 | ≥ 10000 | > 1000 | 
6 | O=C1CC[C@H](c2cccc(-c3ccc(Cn4ccccc4=O)cc3)c2Cl)C(=O)N1 [Compound 201, (R)-3-(2-chloro-4′-((2-oxopyridin-1(2H)-yl)methyl)-[1,1′-biphenyl]-3-yl)piperidine-2,6-dione] | 88.7 | 60 to 90 | 203 | 100 to 1000 | 
7 | O=C1CCC(c2cccc(-c3ccc(CN4Cc5nccn5CC4=O)cc3)c2Cl)C(=O)N1 (stereo not drawn) [Compound 276] | 88.6 | 60 to 90 | 47.6 | ≤ 100 | 
8 | O=C1CCC(c2cccc(-c3cnc(-n4ccccc4=O)c(F)c3)c2Cl)C(=O)N1 (stereo not drawn) [Compound 427, 3-(2-chloro-3-(3′-fluoro-2-oxo-2H-[1,2′-bipyridin]-5′-yl)phenyl)piperidine-2,6-dione] | 79.6 | 60 to 90 | 246 | 100 to 1000 | 
9 | CC1(C)COCC(=O)N1Cc1ccc(-c2cccc(C3CCC(=O)NC3=O)c2Cl)cc1 (stereo not drawn) [Compound 263] | 87.5 | 60 to 90 | 29.3 | ≤ 100 | 
10 | O=C1CCC(c2cccc(-c3ccc(N4Cc5ncccc5C4=O)cc3)c2Cl)C(=O)N1 (stereo not drawn) [Compound 466, 3-(2-chloro-4′-(5-oxo-5,7-dihydro-6H-pyrrolo[3,4-b]pyridin-6-yl)-[1,1′-biphenyl]-3-yl)piperidine-2,6-dione] | 35.2 | < 60 | ≥ 10000 | > 1000 | 
11 | C[C@@H]1COCC(=O)N1c1ccc(-c2cccc(C3CCC(=O)NC3=O)c2Cl)cc1 (stereo partly drawn) [Compound 441, 3-(2-chloro-4′-((R)-3-methyl-5-oxomorpholino)-[1,1′-biphenyl]-3-yl)piperidine-2,6-dione] | 90.5 | > 90 | 14.2 | ≤ 100 | 
12 | O=C1CCC(c2cccc(-c3ccc(CC(=O)N4CCCC4)cc3)c2Cl)C(=O)N1 (stereo not drawn) [Compound 235, 3-(2-chloro-4′-(2-oxo-2-(pyrrolidin-1-yl)ethyl)-[1,1′-biphenyl]-3-yl)piperidine-2,6-dione] | 97.1 | > 90 | 3.87 | ≤ 100 | 
13 | O=C1CCC(c2cccc(-c3ccc(N4C(=O)CCCC4C(F)F)cc3)c2Cl)C(=O)N1 (stereo not drawn) [Compound 463, 3-(2-chloro-4′-(2-(difluoromethyl)-6-oxopiperidin-1-yl)-[1,1′-biphenyl]-3-yl)piperidine-2,6-dione] | 95.7 | > 90 | 7.16 | ≤ 100 | 
14 | O=C1CCC(c2cccc(-c3ccc(N4C(=O)CCC45CC5)nc3)c2Cl)C(=O)N1 (stereo not drawn) [Compound 384, 3-(2-chloro-3-(6-(5-oxo-4-azaspiro[2.4]heptan-4-yl)pyridin-3-yl)phenyl)piperidine-2,6-dione] | 75.5 | 60 to 90 | 122 | 100 to 1000 | 
15 | Cn1ccc(CCc2ccc(-c3cccc(C4CCC(=O)NC4=O)c3Cl)cc2)n1 (stereo not drawn) [Compound 194, 3-(2-chloro-4′-(2-(1-methyl-1H-pyrazol-3-yl)ethyl)-[1,1′-biphenyl]-3-yl)piperidine-2,6-dione] | 94.1 | > 90 | 18.4 | ≤ 100 | 
